# Laboratory results from patent US6905841B2, “Enzymatic substrates for detecting Pseudomonas aeruginas” (Biomerieux S.A., priority 1999, dated 2005).
# Like-named read-outs stand apart in the source and are kept apart here.
# Legend:
# β-alanine aminopeptidase [1] = assay: APIZYM-type test strips with β-alanyl-β-naphthylamide; type: cell-based; conditions: Proteus mirabilis; five strains
# β-alanine aminopeptidase [2] = assay: as above; type: cell-based; conditions: Ochrobactrum anthropi; five strains
# β-alanine aminopeptidase [3] = assay: as above; type: cell-based; conditions: Serratia odorifera; five strains
# β-alanine aminopeptidase [4] = type: cell-based; conditions: out of the seventy nine (79) tested
# β-alanine aminopeptidase [5] = assay: APIZYM-type test strips with β-alanyl-β-naphthylamide; type: cell-based; conditions: Proteus rettgeri; five strains
# β-alanine aminopeptidase [6] = assay: as above; type: cell-based; conditions: Bordetella bronchiseptica; five strains
# β-alanine aminopeptidase [7] = assay: as above; type: cell-based; conditions: Shigella sonnei; five strains
# β-alanine aminopeptidase [8] = assay: as above; type: cell-based; conditions: Comamonas testosteroni; five strains
# β-alanine aminopeptidase [9] = assay: as above; type: cell-based; conditions: Pasteurella multocida; five strains
# β-alanine aminopeptidase [10] = assay: as above; type: cell-based; conditions: Oligella ureolytica; 2 strains
# β-alanine aminopeptidase [11] = assay: as above; type: cell-based; conditions: Enterobacter gergoviae; five strains
# β-alanine aminopeptidase [12] = assay: as above; type: cell-based; conditions: Salmonella spp.; five strains
# β-alanine aminopeptidase [13] = assay: as above; type: cell-based; conditions: Providencia alcalifaciens; five strains
# β-alanine aminopeptidase [14] = assay: as above; type: cell-based; conditions: Moraxella lac. sp. liquefaciens; 7 strains
# β-alanine aminopeptidase [15] = assay: as above; type: cell-based; conditions: Brevundimonas vesicularis; five strains
# β-alanine aminopeptidase [16] = assay: as above; type: cell-based; conditions: Serratia plymuthica; five strains
# β-alanine aminopeptidase [17] = assay: as above; type: cell-based; conditions: Burkholderia cepacia; five strains
# β-alanine aminopeptidase [18] = assay: as above; type: cell-based; conditions: Pasteurella haemolytica; five strains
# β-alanine aminopeptidase [19] = assay: as above; type: cell-based; conditions: Stenotrophomonas maltophilia; five strains
# β-alanine aminopeptidase [20] = assay: as above; type: cell-based; conditions: Pseudomonas aeruginosa; five strains
# β-alanine aminopeptidase [21] = conditions: Pseudomonas putida; 1 strain tested; read after 22 to 24 hours
# β-alanine aminopeptidase [22] = conditions: Citrobacter freundii; 2 strains tested; read after 22 to 24 hours
# β-alanine aminopeptidase [23] = conditions: Serratia marcescens; 3 strains tested; read after 22 to 24 hours
# β-alanine aminopeptidase [24] = conditions: Moraxella non liquefaciens; 2 strains tested; read after 22 to 24 hours
# β-alanine aminopeptidase [25] = conditions: Enterococcus faecalis; 2 strains tested; read after 22 to 24 hours
# β-alanine aminopeptidase [26] = conditions: Acinetobacter baumannii; 2 strains tested; read after 22 to 24 hours
# β-alanine aminopeptidase [27] = conditions: Salmonella arizonae; 1 strain tested; read after 22 to 24 hours
# β-alanine aminopeptidase [28] = conditions: Pseudomonas aeruginosa; 13 strains tested; read after 22 to 24 hours
# β-alanine aminopeptidase [29] = conditions: Enterococcus faecium; 2 strains tested; read after 22 to 24 hours
# β-alanine aminopeptidase [30] = conditions: Achromobacter xylosoxydans; 2 strains tested; read after 22 to 24 hours
# β-alanine aminopeptidase [31] = conditions: Proteus mirabilis; 2 strains tested; read after 22 to 24 hours
# β-alanine aminopeptidase [32] = conditions: Myroïdes spp.; 1 strain tested; read after 22 to 24 hours
# β-alanine aminopeptidase [33] = conditions: Aeromonas hydrophila; 2 strains tested; read after 22 to 24 hours
# β-alanine aminopeptidase [34] = type: cell-based; conditions: Ochrobactrum anthropi; 1 strain tested; read after 22 to 24 hours
# β-alanine aminopeptidase [35] = conditions: Citrobacter koseri; 1 strain tested; read after 22 to 24 hours
compound,measurement,setting,value
β-alanyl-β-naphthylamide,"β-alanine aminopeptidase activity, result",β-alanine aminopeptidase [1],negative
same,"β-alanine aminopeptidase activity, result",β-alanine aminopeptidase [2],positive
same,"β-alanine aminopeptidase activity, result",β-alanine aminopeptidase [3],negative
same,number of species found to possess β-alanine aminopeptidase activity,β-alanine aminopeptidase [4],6 species
same,"β-alanine aminopeptidase activity, result",β-alanine aminopeptidase [5],negative
same,"β-alanine aminopeptidase activity, result",β-alanine aminopeptidase [6],negative
same,"β-alanine aminopeptidase activity, result",β-alanine aminopeptidase [7],negative
same,"β-alanine aminopeptidase activity, result",β-alanine aminopeptidase [8],negative
same,"β-alanine aminopeptidase activity, result",β-alanine aminopeptidase [9],negative
same,"β-alanine aminopeptidase activity, result",β-alanine aminopeptidase [10],negative
same,"β-alanine aminopeptidase activity, result",β-alanine aminopeptidase [11],negative
same,"β-alanine aminopeptidase activity, result",β-alanine aminopeptidase [12],negative
same,"β-alanine aminopeptidase activity, result",β-alanine aminopeptidase [13],negative
same,"β-alanine aminopeptidase activity, result",β-alanine aminopeptidase [14],negative
same,"β-alanine aminopeptidase activity, result",β-alanine aminopeptidase [15],negative
same,"β-alanine aminopeptidase activity, result",β-alanine aminopeptidase [16],negative
same,"β-alanine aminopeptidase activity, result",β-alanine aminopeptidase [17],positive
same,"β-alanine aminopeptidase activity, result",β-alanine aminopeptidase [18],negative
same,"β-alanine aminopeptidase activity, result",β-alanine aminopeptidase [19],negative
same,"β-alanine aminopeptidase activity, result",β-alanine aminopeptidase [20],positive
NCCC(=O)c1c(N)cc(Cl)c(O)c1Cl,Number of negative results,β-alanine aminopeptidase [21],1
same,Number positive results,β-alanine aminopeptidase [21],0
same,Number of negative results,β-alanine aminopeptidase [22],2
same,Number positive results,β-alanine aminopeptidase [22],0
same,Number of negative results,β-alanine aminopeptidase [23],0
same,Number positive results,β-alanine aminopeptidase [23],3
same,Number of negative results,β-alanine aminopeptidase [24],2
same,Number positive results,β-alanine aminopeptidase [24],0
same,Number of negative results,β-alanine aminopeptidase [25],2
same,Number positive results,β-alanine aminopeptidase [25],0
same,Number of negative results,β-alanine aminopeptidase [26],2
same,Number positive results,β-alanine aminopeptidase [26],0
same,Number of negative results,β-alanine aminopeptidase [27],1
same,Number positive results,β-alanine aminopeptidase [27],0
same,Number of negative results,β-alanine aminopeptidase [28],0
same,Number positive results,β-alanine aminopeptidase [28],13
same,Number of negative results,β-alanine aminopeptidase [29],2
same,Number positive results,β-alanine aminopeptidase [29],0
same,Number of negative results,β-alanine aminopeptidase [30],2
same,Number positive results,β-alanine aminopeptidase [30],0
same,Number of negative results,β-alanine aminopeptidase [31],2
same,Number positive results,β-alanine aminopeptidase [31],0
same,Number of negative results,β-alanine aminopeptidase [32],1
same,Number positive results,β-alanine aminopeptidase [32],0
same,Number of negative results,β-alanine aminopeptidase [33],2
same,Number positive results,β-alanine aminopeptidase [33],0
same,Number of negative results,β-alanine aminopeptidase [34],0
same,Number positive results,β-alanine aminopeptidase [34],1
same,Number of negative results,β-alanine aminopeptidase [35],1
same,Number positive results,β-alanine aminopeptidase [35],0
